Laboratory results taken from patent publication US6376540B1, “Furan nitrone compounds” (Centaur Pharmaceuticals, Inc., priority 1996, dated 2002).

Columns and labels:
[1] = Free radical trapping, DCF oxidation, ferrous iron system; assay type: biochemical; settings: 100 μM test compound, 100 μM FeSO4, 50 μM DCF in MEM, 37° C., 2 hrs
Procedure: (§1) Dichlorofluorescein (DCF) is a compound that fluoresces when oxidized by reactive oxygen species (ROS), such as hydroxyl, peroxyl, or alkoxyl free radicals. Test compounds were evaluated for their ability to scavenge radicals by determining their capacity to prevent the DCF oxidation in a radical generating environment. Two radical generating systems were used: (i) ferrous iron and (ii) tert-butyl hydroperoxide. When ferrous iron is placed in normoxic solution, it autooxidizes to produce ROS in the form of hydroxyl radicals, superoxide anion free radicals, and hydrogen peroxide. Similarly, when tert-butyl hydroperoxide is placed in non-chelated media, trace metals catalyze its oxidation to yield alkoxy, peroxyl, and alkyl free radicals.
(§2) In this assay, either 100 μM FeSO4 or 25 μM tert-butyl hydroperoxide were mixed with 50 μM DCF and 100 μM of the test compound in MEM and the mixture was incubated at 37° C. for 2 hrs. The fluorescence wavelengths measured were 485 nm for excitation and 530 nm for emission. In these tests, N-isopropyl-α-(2-sulfofuran-5-yl)nitrone sodium salt (prepared in Example 1 above) reduced fluorescence by 20% in the Fe^+2 assay and by 13% in the tert-butyl hydroperoxide assay. In comparison, a known free radical trap, N-tert-butyl-α-phenylnitrone (PBN) reduced fluorescence by 48% in the Fe^+2 assay and by 9% in the tert-butyl hydroperoxide assay.

[2] = Free radical trapping, DCF oxidation, tert-butyl hydroperoxide system; assay type: biochemical; settings: 100 μM test compound, 25 μM tert-butyl hydroperoxide, 50 μM DCF in MEM, 37° C., 2 hrs
Procedure: as §1, §2

[3] = test system: rat permanent middle cerebral artery occlusion (MCAO) model; test: Rat permanent middle cerebral artery occlusion (MCAO) stroke model; assay type: in vivo
Procedure: A rat permanent middle cerebral artery occlusion (MCAO) model was used to determine stroke treatment efficacy. MCAO is a representative model of acute CNS disorders. See, for example, M. D. Ginsberg et al., “Rodent Models of Cerebral Ischemia” (1989) Stroke, 20:1627-1642. In this stroke model, the middle cerebral artery was permanently occluded via cauterization to produce a focal stroke. N-isopropyl-α-(2-sulfofuran-5-yl)nitrone, sodium salt (prepared in Example 1 above) was then administered as a 10 mg/kg i.v. bolus dose three hours post MCAO through a catheter surgically implanted in the jugular vein. Two days post MCAO, the rats were sacrificed and the extent of brain damage assessed using tetrazolium staining (TTC staining) followed by computer image analysis to quantitate infarct volumes, i.e., the regions of dead tissue. The mean infarct volume for rats treated with the test compound was 24.7 mm^3 whereas the mean infarct volume for rats not treated with the test compound was 36.0 mm^3. […] Thus, N-isopropyl-α-(2-sulfofuran-5-yl)nitrone, sodium salt reduced the mean infarct volume of a stroke by 32% when administered three hours post stroke compared to controls.

rats = test: N-nitro-L-arginine-induced spatial learning deficit; assay type: in vivo, rat; settings: 10 mg/kg 30 min before each of nine doses of N-nitro-L-arginine (100 mg/kg)
Excerpt: Treatment of rats with N-nitro-L-arginine, a nitric oxide synthase inhibitor, is known to cause a deficit in spatial learning. See, for example, G. A. Bohme et al., (1993) PNAS, 90:9191-9194. Rats treated with N-nitro-L-arginine wander aimlessly throughout their enclosure whereas untreated rats spend most of their time in the quadrant in which they are initially placed and stay away from the open area in the middle of the enclosure. This N-nitro-L-arginine-induced spatial learning deficit is used as a model for learning deficits caused by Alzheimer's disease and other dementias.
In this experiment, 10 mg/kg of N-isopropyl-α-(2-sulfofuran-5-yl)nitrone sodium salt (prepared in Example 1 above) or a control was administered 30 min before each of nine doses of N-nitro-L-arginine (100 mg/kg. iip.). The wanderings of the rats were then monitored. […] In contrast, rats treated with N-nitro-L-arginine and N-isopropyl-α-(2-sulfofuran-5-yl)nitrone sodium salt show a preference for the area of the enclosure into which they were first placed and rarely cross the center of the enclosure as illustrated in FIG. 3C. This behavior is essentially the same as rats treated with a saline control (i.e., without N-nitroL-arginine)(see FIG. 3A).

Fas^1pr mutation mice = test: Learning deficit in autoimmune mice, active avoidance T-maze; assay type: in vivo
Procedure: Male MRL/MpJ controls and Fas^1pr mutation mice were either dosed orally with 1% methylcellulose (“MC”) or with 100 mg/kg of N-isopropyl-α-(2-sulfofuran-5-yl)nitrone sodium salt (prepared in Example 1 above)(“test compound”) in 1% methylcellulose for 9-10 weeks. Following dosing, animals of approximately 4 months of age were tested in an active avoidance T-maze. In the one day test, animals were analyzed for acquisition to avoid shock within the first five trials of the test.

With `CC(C)[N+]([O-])=Cc1ccc(S(=O)(=O)O)o1` [Example 1, N-Isopropyl-α-(2-sulfofuran-5-yl)nitrone] the “reduced fluorescence in the Fe^+2 assay” value [1] was 20%, the “reduced fluorescence in the tert-butyl hydroperoxide assay” value [2] was 13% and the mean infarct volume ([3]; 10 mg/kg i.v. bolus three hours post MCAO, two days post MCAO, TTC staining) was 24.7 mm^3. For the same molecule, the “reduction of mean infarct volume compared to controls” value ([3]; 10 mg/kg i.v. bolus three hours post stroke) was 32%, the “spatial learning deficit caused by N-nitro-L-arginine” value (rats) was “prevents the spatial learning deficit” and the “protection in acquisition learning deficit compared to Fas mutated animals receiving only 1% methylcellulose” value (Fas^1pr mutation mice; 100 mg/kg orally for 9-10 weeks, two experiments combined (n=14-15)) was 50%. The “Mean Acquisition Values (Maximum score of 5.0)” value (Fas^1pr mutation mice; Fas^1pr mice, 100 mg/kg orally in 1% methylcellulose for 9-10 weeks, first five trials) was “Mean = 1.467”.
